Source: ChEMBL document CHEMBL4130461, “New chemotype of selective and potent inhibitors of human delta 24-dehydrocholesterol reductase” (Eur J Med Chem, 2017)
Counter-ions that a name gives are not always drawn. The source made the active and inactive calls. The rule behind the calls is not given here.

How the values were obtained:
HL-60 [1] = assay: Induction of sterol accumulation in human HL60 cells assessed as desmosterol accumulation at 1 uM incubated for 24 hrs by GC-MS analysis; format: functional, cell-based
HL-60 [2] = assay: Induction of sterol accumulation in human HL60 cells assessed as desmosterol accumulation at 50 uM incubated for 24 hrs by GC-MS analysis; format: functional, cell-based
HL-60 [3] = assay: Intracellular drug accumulation in human HL60 cells at 10 uM incubated for 24 hrs by GC-MS analysis; format: ADME, cell-based; settings: hl-60, 24 h
HL-60 [4] = assay: Extracellular drug accumulation in human HL60 cells at 10 uM incubated for 24 hrs by GC-MS analysis; format: ADME, cell-based; settings: hl-60, 24 h
HL-60 [5] = assay: cells; settings: Homo sapiens
Description: Cytotoxicity in human HL60 cells by MTT assay

HL-60 [6] = assay: Induction of sterol accumulation in human HL60 cells at 1 uM incubated for 24 hrs by GC-MS analysis; format: functional, cell-based
HL-60 [7] = assay: Induction of sterol accumulation in human HL60 cells at 50 uM incubated for 24 hrs by GC-MS analysis; format: functional, cell-based
HL-60 [8] = assay: Cytotoxicity in human HL60 cells at 50 uM by MTT assay; format: cell-based; settings: hl-60, 50 µM
Mus musculus [9] = assay: Liver toxicity in C57BL/6 mouse assessed as effect on ALT levels at 500 ug/day, iv dosed daily for 5 days; format: organism-based; settings: in vivo, 120 h
Mus musculus [10] = assay: Liver toxicity in C57BL/6 mouse assessed as effect on AST levels at 500 ug/day, iv dosed daily for 5 days; format: organism-based; settings: in vivo, 120 h
Mus musculus [11] = assay: Acute liver toxicity in C57BL/6 mouse at 500 ug/day, iv dosed daily for 5 days; format: organism-based; settings: in vivo, 120 h
Mus musculus [12] = assay: Reduction in cholesterol level in C57BL/6 mouse blood at 500 ug/day, iv dosed daily for 5 days byGC-MS analysis; format: functional, organism-based
Mus musculus [13] = assay: Induction of desmosterol accumulation in C57BL/6 mouse blood at 500 ug/day, iv dosed daily for 5 days byGC-MS analysis; format: functional
[14] = Drug metabolism in human HL60 cells at 10 uM incubated for 24 hrs by GC-MS analysis; format: ADME, cell-based; settings: hl-60, 24 h
HL-60 [15] = assay: Induction of sterol accumulation in human HL60 cells assessed as lathosterol accumulation at 1 uM incubated for 24 hrs by GC-MS analysis; format: functional, cell-based
HL-60 [16] = assay: Induction of sterol accumulation in human HL60 cells assessed as zymosterol accumulation at 1 uM incubated for 24 hrs by GC-MS analysis; format: functional, cell-based
HL-60 [17] = assay: Induction of sterol accumulation in human HL60 cells assessed as holesta-7,24-dien-3beta-ol accumulation at 1 uM incubated for 24 hrs by GC-MS analysis; format: functional, cell-based
HL-60 [18] = assay: Induction of sterol accumulation in human HL60 cells at 0.1 uM incubated for 24 hrs by GC-MS analysis; format: functional, cell-based
HL-60 [19] = assay: Induction of sterol accumulation in human HL60 cells assessed as zymosterol accumulation at 50 uM incubated for 24 hrs by GC-MS analysis; format: functional, cell-based
HL-60 [20] = assay: Induction of sterol accumulation in human HL60 cells assessed as holesta-7,24-dien-3beta-ol accumulation at 50 uM incubated for 24 hrs by GC-MS analysis; format: functional, cell-based
HL-60 [21] = assay: Induction of sterol accumulation in human HL60 cells assessed as lathosterol accumulation at 50 uM incubated for 24 hrs by GC-MS analysis; format: functional, cell-based
[22] = target: T1, Lathosterol oxidase (Homo sapiens) (UniProt O75845); assay: Inhibition of C5-desaturase in human HL60 cells assessed as compound level causing induction of sterol accumulation incubated for 24 hrs by GC-MS analysis; format: cell-based
T1 sequence (whole entry): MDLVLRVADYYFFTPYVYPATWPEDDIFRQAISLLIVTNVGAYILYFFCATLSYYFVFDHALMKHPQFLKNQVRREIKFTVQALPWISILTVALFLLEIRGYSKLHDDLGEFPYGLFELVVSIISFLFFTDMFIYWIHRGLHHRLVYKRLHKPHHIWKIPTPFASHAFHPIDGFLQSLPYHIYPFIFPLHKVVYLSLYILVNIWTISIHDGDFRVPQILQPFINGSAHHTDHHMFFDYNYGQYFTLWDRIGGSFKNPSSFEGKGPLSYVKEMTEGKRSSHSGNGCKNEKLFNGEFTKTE

SMILES	IC50 (HL-60 [5])	Activity (HL-60 [1])	Activity (HL-60 [2])	Activity (HL-60 [8])	further results
CC(=O)O[C@H]1CC[C@@]2(C)[C@@H](CC=C3[C@@H]2CC[C@]2(C)[C@@H]([C@H](C)C(=O)N(C)C)CC[C@@H]32)C1	> 50 µM	–	–	–	Activity (HL-60 [6]): inactive; Activity (HL-60 [7]): inactive
CNC(=O)[C@@H](C)[C@H]1CC[C@H]2C3=CC[C@H]4C[C@@H](OC(C)=O)CC[C@]4(C)[C@H]3CC[C@]12C	> 50 µM	Active	Active	–	–
CC(=O)O[C@H]1CC[C@@]2(C)[C@@H](CC=C3[C@@H]2CC[C@]2(C)[C@@H]([C@H](C)CN)CC[C@@H]32)C1	> 50 µM	Active	Active	–	–
CC(=O)O[C@H]1CC[C@@]2(C)[C@@H](CC=C3[C@@H]2CC[C@]2(C)[C@@H]([C@H](C)C(=O)O)CC[C@@H]32)C1	> 50 µM	–	–	–	Activity (HL-60 [6]): inactive; Activity (HL-60 [7]): inactive
C/C=C/C(=O)OC[C@@H](C)[C@H]1CC[C@H]2C3=CC[C@H]4C[C@@H](OC(C)=O)CC[C@]4(C)[C@H]3CC[C@]12C	10 µM	Active	–	Toxic	–
CC(=O)O[C@H]1CC[C@@]2(C)[C@@H](CC=C3[C@@H]2CC[C@]2(C)[C@@H]([C@H](C)COC=O)CC[C@@H]32)C1	> 50 µM	Active	Active	–	Activity (Mus musculus [9]): Non-Toxic; Activity (Mus musculus [10]): Non-Toxic; Activity (Mus musculus [11]): Non-Toxic; Activity (Mus musculus [12]): Active; Activity (Mus musculus [13]): 1 µg/mL; Drug uptake (HL-60 [3]): 1 µM; Drug uptake (HL-60 [4]): 2 µM; Drug metabolism [14]: Metabolite_Notdetected
CONC(=O)[C@@H](C)[C@H]1CC[C@H]2C3=CC[C@H]4C[C@@H](OC(C)=O)CC[C@]4(C)[C@H]3CC[C@]12C	> 50 µM	Active	Active	–	–
CCN(CC)CCO[C@H]1CC[C@@]2(C)C(=CC[C@@H]3[C@@H]2CC[C@]2(C)C(=O)CC[C@@H]32)C1	> 50 µM	–	–	–	–
C[C@H](CO)[C@H]1CC[C@H]2[C@@H]3CC=C4C[C@@H](O)CC[C@]4(C)[C@H]3CC[C@]12C	> 50 µM	Active	Active	–	–
CC(C)CCC[C@@H](C)[C@H]1CC[C@H]2C3=CC[C@H]4C[C@@H](O)CC[C@]4(C)[C@H]3CC[C@]12C	–	–	–	–	Activity (HL-60 [18]): inactive
CC(C)=CCC[C@@H](C)[C@H]1CC[C@H]2C3=CC[C@H]4C[C@@H](O)CC[C@]4(C)[C@H]3CC[C@]12C	–	–	–	–	Activity (HL-60 [18]): inactive
CC(=O)O[C@H]1CC[C@@]2(C)[C@@H](CC=C3[C@@H]2CC[C@]2(C)[C@@H]([C@H](C)CO)CC[C@@H]32)C1	> 50 µM	Active	Active	–	–
CC(C)=CCC[C@@H](C)[C@H]1CC[C@H]2C3=C(CC[C@]12C)[C@@]1(C)CC[C@H](O)C[C@@H]1CC3	–	–	–	–	Activity (HL-60 [18]): inactive
CCONC(=O)[C@@H](C)[C@H]1CC[C@H]2C3=CC[C@H]4C[C@@H](OC(C)=O)CC[C@]4(C)[C@H]3CC[C@]12C	18 µM	–	–	Toxic	Activity (HL-60 [6]): inactive
CCCC(=O)N(C)C[C@@H](C)[C@H]1CC[C@H]2C3=CC[C@H]4C[C@@H](OC(C)=O)CC[C@]4(C)[C@H]3CC[C@]12C	13 µM	Active	–	Toxic	–
C[C@H](O)[C@H]1CC[C@H]2[C@@H]3CC=C4C[C@@H](O)CC[C@]4(C)[C@H]3CC[C@]12C	> 50 µM	–	–	–	Activity (HL-60 [6]): inactive; Activity (HL-60 [7]): inactive
CC(=O)O[C@H]1CC[C@@]2(C)[C@@H](CC=C3[C@@H]2CC[C@]2(C)[C@@H]([C@H](C)C(=O)N(C)CC(C)C)CC[C@@H]32)C1	47 µM	–	Active	–	Activity (HL-60 [6]): inactive
C[C@H](CCC(=O)N(C)C)[C@H]1CC[C@H]2[C@@H]3CC=C4C[C@@H](O)CC[C@]4(C)[C@H]3CC[C@]12C	> 50 µM	Active	Active	–	–
CC(=O)O[C@H]1CC[C@@]2(C)[C@@H](CC=C3[C@@H]2CC[C@]2(C)[C@@H]([C@H](C)COC(=O)CN(C)C)CC[C@@H]32)C1	21 µM	Active	–	Toxic	–

Continued, in another order:

IC50 (HL-60 [5])	SMILES	Activity (HL-60 [1])	Activity (HL-60 [2])	Activity (HL-60 [8])	further results
> 50 µM	C[C@H](CO)[C@H]1CC[C@H]2C3=CC[C@H]4C[C@@H](O)CC[C@]4(C)[C@H]3CC[C@]12C	Active	Active	–	Drug uptake (HL-60 [3]): 1 µM; Drug uptake (HL-60 [4]): 6 µM
> 50 µM	CCC(=O)NC[C@@H](C)[C@H]1CC[C@H]2C3=CC[C@H]4C[C@@H](OC(C)=O)CC[C@]4(C)[C@H]3CC[C@]12C	Active	Active	–	–
> 50 µM	C/C=C(\C)C(=O)OC[C@@H](C)[C@H]1CC[C@H]2C3=CC[C@H]4C[C@@H](OC(C)=O)CC[C@]4(C)[C@H]3CC[C@]12C	Active	Active	–	–
10 µM	CCN(CC)CCOc1ccc(C(O)(Cc2ccc(Cl)cc2)c2ccc(C)cc2)cc1 (stereo not drawn) [TRIPARANOL]	Active	–	Toxic	Activity (HL-60 [15]): Active; Activity (HL-60 [16]): Active; Activity (HL-60 [17]): Active
20 µM	CCC(=O)N(C)C[C@@H](C)[C@H]1CC[C@H]2C3=CC[C@H]4C[C@@H](OC(C)=O)CC[C@]4(C)[C@H]3CC[C@]12C	Active	–	Toxic	–
18 µM	CC(=O)O[C@H]1CC[C@@]2(C)[C@@H](CC=C3[C@@H]2CC[C@]2(C)[C@@H]([C@H](C)C(=O)NO)CC[C@@H]32)C1	–	–	Toxic	Activity (HL-60 [6]): inactive
> 50 µM	CCCC(=O)NC[C@@H](C)[C@H]1CC[C@H]2C3=CC[C@H]4C[C@@H](OC(C)=O)CC[C@]4(C)[C@H]3CC[C@]12C	Active	–	–	Activity (HL-60 [15]): Active; Activity (HL-60 [19]): Active; Activity (HL-60 [20]): Active
3 µM	C[C@H](/C=C/c1cc[n+](C)cc1)[C@H]1CC[C@H]2C3=CC[C@H]4C[C@@H](O)CC[C@]4(C)[C@H]3CC[C@]12C.[I-]	Active	–	Toxic	–
16 µM	CN1CCN(CCCN2c3ccccc3Sc3ccc(C(F)(F)F)cc32)CC1 [TRIFLUOPERAZINE HYDROCHLORIDE]	Active	Active	–	Activity (HL-60 [15]): Active; Activity (HL-60 [21]): Active; INH [22]: 1 to 50 µM
> 50 µM	CC(=O)O[C@H]1CC[C@@]2(C)[C@@H](CC=C3[C@@H]2CC[C@]2(C)[C@@H]([C@H](C)C=O)CC[C@@H]32)C1	–	–	–	Activity (HL-60 [6]): inactive; Activity (HL-60 [7]): inactive
20 µM	CNC[C@@H](C)[C@H]1CC[C@H]2C3=CC[C@H]4C[C@@H](OC(C)=O)CC[C@]4(C)[C@H]3CC[C@]12C	Active	–	Toxic	Activity (HL-60 [15]): Active; Activity (HL-60 [16]): Active; Activity (HL-60 [17]): Active
